Results published in US20110003888A1, “HOPS EXTRACTION METHODS AND MIXTURES” (Bioactives, Inc., priority 2007, published 2011).

Columns and labels:
in vitro = settings: human, Caco-2
Protocol: (§1) To test the permeability of xanthohumol across Caco-2 cell monolayers, Caco-2 cell monolayers were grown to confluence on collagen-coated, microporous, polycarbonate membranes in 12-well Costar Transwell® plates. Details of the plates and their certification are shown below in Table 3. The test article was also the aqueous xanthohumol formulation, and the dosing concentration was 2 μM in the assay buffer (HBSSg) as in the previous example. Cell monolayers were dosed on the apical side (A-to-B) or basolateral side (B-to-A) and incubated at 37° C. with 5% CO2 in a humidified incubator. Samples were taken from the donor chamber at 120 minutes, and samples from the receiver chamber were collected at 60 and 120 minutes. Each determination was performed in duplicate. Lucifer yellow permeability was also measured for each monolayer after being subjected to the test article to ensure no damage was inflicted to the cell monolayers during the permeability experiment. All samples were assayed for Xanthohumol by LC/MS/MS using electrospray ionization. The apparent permeability (Papp), and percent recovery were calculated as described above.

[1] = Permeability through cell-free (blank) microporous membrane filter, non-specific binding assessment; format: in vitro ADME; settings: not told, pH 7.4, cell-free filter; for Papp A→B at 120 min, 2 μM: xanthohumol gel formulation at 2 μM xanthohumol; for recovery at 120 min, 2 μM: xanthohumol gel formulation at 2 μM
Protocol: The permeability of the xanthohumol gel through a cell-free (blank) microporous 0.4 micron membrane filter was studied in order to determine the non-specific binding and cell-free diffusion Papp of the xanthohumol gel formulation. The xanthohumol gel formulation was assayed at a 2 μM xanthohumol concentration in Hanks buffer (Hanks Balanced Salt Solution (HBSSg) containing 10 mM HEPES and 15 mM glucose) at a pH of 7.4 in duplicate. Donor samples were collected at 120 minutes. Receiver samples were collected at 60 and 120 minutes. The apparent permeability coefficient, Papp, and percent recovery were calculated as follows:
(§2) Percent Recovery=100×((Vr×Cr^final)+(Vd×Cd^final))/(Vd×C0) • Where: • dCr/dt is the slope of the cumulative concentration in the receiver compartment versus time in μM s^−1. • Vr is the volume of the receiver compartment in cm^3. • Vd is the volume of the donor compartment in cm^3. • A is the area of the cell-free insert (1.13 cm^2 for 12-well Transwell). • Cr^final is the cumulative receiver concentration in μM at the end of the incubation period. • Cd^final is the concentration of the donor in μM at the end of the incubation period. • C0 is the initial concentration of the dosing solution in μM.

Cyp1B1 = target: T1, Cyp1B1 (Homo sapiens, UniProt Q16678); settings: cDNA-expressed human Cyp1B1; cited from earlier work
T1 sequence (Q16678 1-543): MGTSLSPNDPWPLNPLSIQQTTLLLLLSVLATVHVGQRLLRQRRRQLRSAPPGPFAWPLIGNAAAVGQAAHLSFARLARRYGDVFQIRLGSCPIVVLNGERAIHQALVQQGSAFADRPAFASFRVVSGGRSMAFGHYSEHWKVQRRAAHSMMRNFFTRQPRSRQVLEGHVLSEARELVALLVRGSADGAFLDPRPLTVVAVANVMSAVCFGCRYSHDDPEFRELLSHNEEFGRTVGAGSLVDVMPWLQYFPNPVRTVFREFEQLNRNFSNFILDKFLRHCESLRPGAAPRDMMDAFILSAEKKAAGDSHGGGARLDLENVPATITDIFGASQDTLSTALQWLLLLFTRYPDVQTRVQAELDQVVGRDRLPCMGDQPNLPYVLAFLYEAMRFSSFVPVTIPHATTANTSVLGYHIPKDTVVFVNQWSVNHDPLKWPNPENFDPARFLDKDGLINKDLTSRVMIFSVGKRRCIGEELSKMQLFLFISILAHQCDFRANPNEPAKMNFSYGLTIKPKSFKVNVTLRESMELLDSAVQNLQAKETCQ

Cyp1 A1 = target: T2, Cyp1 A1 (Homo sapiens, UniProt P04798); settings: cDNA-expressed human Cyp1 A1; cited from earlier work
T2 sequence (P04798 1-512): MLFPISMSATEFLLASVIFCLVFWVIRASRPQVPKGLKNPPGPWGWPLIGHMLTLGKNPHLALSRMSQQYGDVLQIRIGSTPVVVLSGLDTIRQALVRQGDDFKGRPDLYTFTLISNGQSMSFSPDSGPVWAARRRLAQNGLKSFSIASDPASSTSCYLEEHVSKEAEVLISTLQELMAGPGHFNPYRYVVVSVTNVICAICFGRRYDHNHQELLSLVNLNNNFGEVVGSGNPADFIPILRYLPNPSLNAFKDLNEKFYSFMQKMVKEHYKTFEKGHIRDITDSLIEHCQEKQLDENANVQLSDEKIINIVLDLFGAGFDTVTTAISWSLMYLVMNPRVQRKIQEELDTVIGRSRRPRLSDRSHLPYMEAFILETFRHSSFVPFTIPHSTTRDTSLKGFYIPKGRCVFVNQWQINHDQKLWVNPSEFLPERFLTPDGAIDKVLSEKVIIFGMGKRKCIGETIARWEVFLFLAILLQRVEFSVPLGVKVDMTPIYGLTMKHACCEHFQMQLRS

Cyp1 A2 = target: T3, Cyp1 A2 (Homo sapiens, UniProt P05177); settings: cDNA-expressed human Cyp1 A2; cited from earlier work
T3 sequence (P05177 1-516): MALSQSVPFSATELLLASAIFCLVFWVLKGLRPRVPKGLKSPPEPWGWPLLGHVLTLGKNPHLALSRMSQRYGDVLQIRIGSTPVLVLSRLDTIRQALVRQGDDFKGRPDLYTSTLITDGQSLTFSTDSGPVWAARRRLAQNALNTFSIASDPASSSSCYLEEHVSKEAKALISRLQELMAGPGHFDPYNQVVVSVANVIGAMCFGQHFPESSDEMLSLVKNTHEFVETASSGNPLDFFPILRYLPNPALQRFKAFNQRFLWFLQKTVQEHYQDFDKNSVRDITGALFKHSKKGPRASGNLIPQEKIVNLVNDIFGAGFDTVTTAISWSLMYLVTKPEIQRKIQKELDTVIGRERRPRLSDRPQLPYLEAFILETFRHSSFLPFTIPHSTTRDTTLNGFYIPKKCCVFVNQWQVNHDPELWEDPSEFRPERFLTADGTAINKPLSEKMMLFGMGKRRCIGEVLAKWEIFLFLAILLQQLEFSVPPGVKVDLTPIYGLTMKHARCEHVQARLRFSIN

Caco-2 cell monolayers [2] = test: Permeability across Caco-2 cell monolayers; format: in vitro ADME
Protocol: as §2
(§3) Each determination was performed in duplicate.

[3] = Permeability across Caco-2 cell monolayers; format: in vitro ADME; settings: human
Protocol: as §2, §3

inducible COX-2 = settings: read-out: IC50, inhibition of cyclooxygenase; cited from earlier work
Caco-2 cell monolayers [4] = test: Caco-2 Transwell plate certification with control compounds; settings: Caco-2 plate certification, TW12, passage 63, age 22 days
Protocol: as §1

endothelial cells = settings: in vitro model, endothelial cells invading collagen gel and forming capillary-like tubes; cited from earlier work

In the case of `CC(C)NCC(O)COc1cccc2ccccc12` (stereo not shown) [Propranolol], the Papp (in vitro) is reported as 20.6 ×10⁻⁶ cm/s.
For `C[C@H]1O[C@@H](O[C@H]2[C@@H](O)C[C@H](O[C@H]3[C@@H](O)C[C@H](O[C@H]4CC[C@@]5(C)[C@H](CC[C@@H]6[C@@H]5C[C@@H](O)[C@]5(C)[C@@H](C7=CC(=O)OC7)CC[C@]65O)C4)O[C@@H]3C)O[C@@H]2C)C[C@H](O)[C@@H]1O` [Digoxin], the efflux ratio (in vitro) was 16.6.
In the case of `COc1cc(O)c(CC=C(C)C)c(O)c1C(=O)/C=C/c1ccc(O)cc1` [Xanthohumol, xanthohumol], the Papp A→B at 120 min, 2 μM ([1]; pH 7.4, Rep. 1) is reported as 18.6 ×10⁻⁶ cm/s, the Papp A→B at 120 min, 2 μM ([1]; pH 7.4, Rep. 2) is reported as 17.1 ×10⁻⁶ cm/s and the Papp A→B at 120 min, 2 μM ([1]; pH 7.4, average N = 2) is reported as 17.9 ×10⁻⁶ cm/s. The recovery at 120 min, 2 μM ([1]; Rep. 1) was 95%, the recovery at 120 min, 2 μM ([1]; Rep. 2) was 99% and the recovery at 120 min, 2 μM ([1]; average N = 2) was 97%. For the same molecule, the “Inhibition of cytochrome P450 enzyme” value (Cyp1B1) was “strongly inhibit”, the “Inhibition of cytochrome P450 enzyme” value (Cyp1 A1) was “strongly inhibit” and the “Inhibition of cytochrome P450 enzyme” value (Cyp1 A2) was “strongly inhibit”. The “Significant Efflux” value (Caco-2 cell monolayers [2]; Caco-2) was “No”, the efflux ratio at 120 min, 2 μM ([3]; Caco-2, pH 7.4) was 2.1 and the Papp A→B at 120 min, 2 μM ([3]; Caco-2, pH 7.4, Papp) was 0.84 ×10⁻⁶ cm/s. The Papp B→A at 120 min, 2 μM ([3]; Caco-2, pH 7.4, Papp) was 1.36 ×10⁻⁶ cm/s and the IC50 (inducible COX-2) was 42 µM.
In the case of Lucifer Yellow [reference compound], the “Lucifer yellow Papp, post-experiment integrity control” value (Caco-2 cell monolayers [2]; all monolayers after exposure to test article) is reported as < 8e-07 cm/s and the Papp (Caco-2 cell monolayers [4]) is reported as 1.3e-07 cm/s.
In the case of `COc1cc(O)c(CC=C(C)C)c2c1C(=O)CC(c1ccc(O)cc1)O2` (stereo not shown) [isoxanthohumol], the “Inhibition of cytochrome P450 enzyme” value (Cyp1B1) is given as “strongly inhibit”, the “Inhibition of cytochrome P450 enzyme” value (Cyp1 A1) is given as “strongly inhibit” and the “Inhibition of cytochrome P450 enzyme” value (Cyp1 A2) is given as “strongly inhibit”.
For `CC(C)=CCc1c(O)cc(O)c2c1O[C@H](c1ccc(O)cc1)CC2=O` [8-prenylnaringenin], the “Inhibition of cytochrome P450 enzyme” value (Cyp1B1) is listed as “strongly inhibit”, the “Inhibition of cytochrome P450 enzyme” value (Cyp1 A1) is listed as “strongly inhibit” and the Effect on angiogenesis (endothelial cells) is listed as “inhibits angiogenesis”. For the same molecule, the “Inhibition of cytochrome P450 enzyme” value (Cyp1 A2) was “strongly inhibit”.
